Values quoted from earlier work as cited in patent publication US8080647B2 (priority 2006, dated 2011).

Experiments:
lac repressor = lac repressor (Escherichia coli, UniProt P03023)
[1] = test system: lac operator-repressor system; details: Ulmasov et al. 1997

Molecule	toxicity of the inducing agent (cells)	reduction of the affinity of lac repressor for the operator (lac repressor)	repression reported [1]
CC(C)S[C@@H]1O[C@H](CO)[C@H](O)[C@H](O)[C@H]1O [IPTG, isopropyl-B-D-thiogalactopyranoside]	cytotoxic	300 fold	
lactose repressor: repressor protein of the E. coli lactose operon (protein, UniProt P03023 1-360, looked up) Lactose operon repressor: MKPVTLYDVAEYAGVSYQTVSRVVNQASHVSAKTREKVEAAMAELNYIPNRVAQQLAGKQSLLIGVATSSLALHAPSQIVAAIKSRADQLGASVVVSMVERSGVEACKAAVHNLLAQRVSGLIINYPLDDQDAIAVEAACTNVPALFLDVSDQTPINSIIFSHEDGTRLGVEHLVALGHQQIALLAGPLSSVSARLRLAGWHKYLTRNQIQPIAEREGDWSAMSGFQQTMQMLNEGIVPTAMLVANDQMALGAMRAITESGLRVGADISVVGYDDTEDSSCYIPPLTTIKQDFRLLGQTSVDRLLQLSQGQAVKGNQLLPVSLVKRKTTLAPNTQTASPRALADSLMQLARQVSRLESGQ			30 fold
